Results as given in ChEMBL document CHEMBL5512664, “Emerging and Re-emerging Warheads for Targeted Covalent Inhibitors: An Update” (J Med Chem, 2024).

Experiments:
[1] = target: Replicase polyprotein 1ab (Severe acute respiratory syndrome coronavirus 2, UniProt P0DTD1); test: Inhibition of SARS-CoV-2 Main protease (Mpro) by FRET assay
[2] = Stability of the compound in human plasma assessed as half life; type: ADME, cell-free
[3] = Inhibition of staphylococcus aureus Sortase A assessed as fluorescence polarization using reporter peptide W7-F incubated for 30 mins by competition assay
[4] = Metabolic stability in human hepatocytes assessed as half life; type: ADME, cell-based, Hepatocyte
[5] = Metabolic stability in human liver microsomes assessed as half life; type: ADME, Microsome
[6] = target: Induced myeloid leukemia cell differentiation protein Mcl-1 (Homo sapiens, UniProt Q07820); test: Irreversible inhibition of MCL-1 (unknown origin) measured after 8 hrs
Chain of Induced myeloid leukemia cell differentiation protein Mcl-1 (Q07820 whole entry): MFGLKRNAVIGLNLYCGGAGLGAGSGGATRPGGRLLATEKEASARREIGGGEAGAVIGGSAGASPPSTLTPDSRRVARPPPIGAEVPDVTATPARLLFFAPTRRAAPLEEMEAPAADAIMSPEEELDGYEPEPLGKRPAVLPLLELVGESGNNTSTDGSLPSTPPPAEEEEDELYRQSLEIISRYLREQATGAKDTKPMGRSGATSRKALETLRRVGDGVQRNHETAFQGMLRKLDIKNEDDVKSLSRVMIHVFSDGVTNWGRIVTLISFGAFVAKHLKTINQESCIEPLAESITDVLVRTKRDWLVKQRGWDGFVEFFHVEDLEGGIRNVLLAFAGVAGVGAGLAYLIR

[7] = target: Eukaryotic translation initiation factor 4E (Homo sapiens) (UniProt P06730); test: Inhibition of eIF4E (unknown origin) assessed as inactivation rate constant (Kinact)
Chain of Eukaryotic translation initiation factor 4E (Homo sapiens) (P06730 whole entry): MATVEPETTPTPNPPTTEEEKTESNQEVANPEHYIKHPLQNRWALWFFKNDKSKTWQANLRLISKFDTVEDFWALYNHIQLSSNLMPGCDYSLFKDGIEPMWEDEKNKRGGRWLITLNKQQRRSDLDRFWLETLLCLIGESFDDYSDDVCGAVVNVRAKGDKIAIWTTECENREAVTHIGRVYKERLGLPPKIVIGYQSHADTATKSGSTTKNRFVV

[8] = GSH reactivity in PBS buffer at pH 7.5 assessed as half life at 500 uM by LC-MS analysis; type: ADME
[9] = target: Eukaryotic translation initiation factor 4E (Homo sapiens) (UniProt P06730); test: Inhibition of eIF4E (unknown origin) assessed as reaction rate Kinact/Ki ratio
[10] = Stability of the compound in pH 7.5 PBS assessed as hydrolysis by measuring half life at 500 uM by LC-MS analysis; type: physicochemical; settings: PBS pH 7.5, pH 7.5
[11] = target: Signal peptidase I (Escherichia coli K-12) (UniProt P00803); test: Irreversible inhibition of Escherichia coli type I signal peptidase LepB assessed as inactivation rate constant (Kinact)
Chain of Signal peptidase I (Escherichia coli K-12) (P00803 whole entry): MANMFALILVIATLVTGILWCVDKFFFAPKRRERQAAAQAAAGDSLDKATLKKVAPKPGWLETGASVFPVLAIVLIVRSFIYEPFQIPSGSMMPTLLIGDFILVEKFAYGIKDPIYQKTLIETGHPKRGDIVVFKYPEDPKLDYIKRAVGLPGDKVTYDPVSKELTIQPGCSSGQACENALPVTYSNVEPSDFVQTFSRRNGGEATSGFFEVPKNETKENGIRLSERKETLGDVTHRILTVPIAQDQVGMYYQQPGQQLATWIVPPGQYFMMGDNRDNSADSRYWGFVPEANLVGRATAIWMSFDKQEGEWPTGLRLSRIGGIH

[12] = target: Signal peptidase I (Escherichia coli K-12) (UniProt P00803); test: Inhibition of Escherichia coli type I signal peptidase LepB assessed as reaction rate Kinact/Ki ratio
Signal peptidase I = Signal peptidase I (Escherichia coli K-12, UniProt P00803); test: Binding affinity to Escherichia coli type I signal peptidase LepB assessed as inhibition constant
Chain of Signal peptidase I (P00803 whole entry): as above

Pyruvate kinase PKLR = Pyruvate kinase PKLR (Homo sapiens, UniProt P30613); test: Allosteric activation at human liver pyruvate kinase
Chain of Pyruvate kinase PKLR (P30613 whole entry): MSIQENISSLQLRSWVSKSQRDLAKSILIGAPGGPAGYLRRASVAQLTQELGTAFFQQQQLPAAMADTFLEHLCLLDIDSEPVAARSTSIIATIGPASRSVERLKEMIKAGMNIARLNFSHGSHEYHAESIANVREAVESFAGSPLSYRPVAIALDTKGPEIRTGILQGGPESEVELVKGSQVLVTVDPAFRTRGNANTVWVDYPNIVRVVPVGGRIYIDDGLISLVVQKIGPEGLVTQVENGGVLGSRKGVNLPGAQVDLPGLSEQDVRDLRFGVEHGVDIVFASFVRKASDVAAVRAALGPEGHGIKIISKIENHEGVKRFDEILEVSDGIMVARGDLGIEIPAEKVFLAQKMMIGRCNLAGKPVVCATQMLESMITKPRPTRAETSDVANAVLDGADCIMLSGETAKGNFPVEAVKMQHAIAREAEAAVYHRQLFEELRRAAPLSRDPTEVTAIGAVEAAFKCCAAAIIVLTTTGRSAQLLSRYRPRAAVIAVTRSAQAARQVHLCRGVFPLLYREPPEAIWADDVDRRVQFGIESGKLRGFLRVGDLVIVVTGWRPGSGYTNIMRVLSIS

[13] = target: T1, Peptidyl-prolyl cis-trans isomerase E (Homo sapiens, UniProt Q9UNP9); test: Inhibition of CypE (unknown origin) expressed in Escherichia coli BL21(DE3) by FLIPR based Chymotrypsin coupled prolyl-isomerase assay
T1 sequence (Q9UNP9 whole entry): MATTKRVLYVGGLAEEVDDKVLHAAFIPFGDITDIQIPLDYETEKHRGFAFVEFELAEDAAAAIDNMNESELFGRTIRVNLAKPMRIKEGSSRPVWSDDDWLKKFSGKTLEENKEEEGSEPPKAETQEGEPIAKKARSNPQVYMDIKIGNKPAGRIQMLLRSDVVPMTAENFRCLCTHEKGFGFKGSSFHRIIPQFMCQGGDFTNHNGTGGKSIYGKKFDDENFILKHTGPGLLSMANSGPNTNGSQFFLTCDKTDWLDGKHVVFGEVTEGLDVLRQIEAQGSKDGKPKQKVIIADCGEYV

[14] = target: T1, Peptidyl-prolyl cis-trans isomerase E; test: Inhibition of CypE (unknown origin) assessed as apparent inhibition constant incubated for 24 hrs by Competition anisotropy binding assay; settings: read-out: Ki(app)

O=C[C@H](CC1CCNC1=O)NC(=O)[C@H](Cc1cccc(F)c1)NC(=O)c1cc2ccccc2[nH]1 (stereo partly specified)
IC50 [1]: 40 nM

O=C1CCC(N2Cc3ccc(S(=O)(=O)n4cncn4)cc3C2=O)C(=O)N1 (stereo unspecified)
half-life [2]: < 1 min

O=Cc1ccccc1NCc1ccccc1B(O)O
IC50 [3]: 1300 nM

O=C1CCC(N2Cc3ccc(OS(=O)(=O)F)cc3C2=O)C(=O)N1 (stereo unspecified)
half-life [4]: > 217 min
half-life [5]: > 145 min

C#Cc1ccc(OCc2nn(C)c(C)c2-c2cccc3c(CCCOc4cccc5ccccc45)c(C(=O)O)[nH]c23)cc1C=O
IC50 [6]: 26.8 nM

CNc1nc2ccc(N(Cc3ccnc(Cl)c3)S(=O)(=O)c3cccc(S(=O)(=O)F)c3)cc2c(=O)[nH]1
Kinact [7]: 2 10^-2/s
half-life at 500 µM [8]: 2.7 min
Ratio [9]: 5.5 10^3/M/s
half-life at 500 µM [10]: 30 min

Cc1nc(-c2ccc(C(C)(C)C)cc2)ncc1C(=O)N[C@@H](CCN)C(=O)N(C)[C@@H]1C(=O)N[C@@H](C)C(=O)N[C@H](C(=O)NCC#N)Cc2ccc(OCCN)c(c2)-c2cc1ccc2OCCN
Kinact [11]: 7 10^-4/s
Ratio [12]: 1.6 10^6/M/s
Ki (Signal peptidase I): 0.44 nM

COC(=O)c1ccccc1SC1=NS(=O)(=O)c2ccccc21
EC50 (Pyruvate kinase PKLR): 290 nM

NCCOCCNC(=O)[C@@H]1CCNC(=O)/C=C/C(=O)N2CCC[C@](Cc3ccccc3)(C2)C(=O)N[C@@H](Cc2ccc(-c3ccccc3)cc2)C(=O)NCc2ccccc2CC(=O)N1
IC50 [13]: 13 nM
Ki [14]: 72 nM
